Data published in US20140163023A1, “DIHYDROPYRROLO PYRIMIDINE DERIVATIVES AS MTOR INHIBITORS” (Cellzome Limited, priority 2011, published 2014).

Key:
mTOR = biological target: T1, mTOR (Homo sapiens, UniProt P42345); assay: mTOR kinobeads assay (competition binding in cell lysate, dot blot detection); settings: 1:1 mix of Jurkat and Ramos cell lysates, read-out: Inhibition values (IC50 in μM) as determined in the kinobeads assay, mTor
T1 construct: endogenous in cells; host or cells: Jurkat (ATCC TIB-152, clone E6-1) and Ramos (ATCC CRL-1596), 1:1 lysate mix
Protocol: Determination of the Effect of the Compounds According to the Invention on mTOR
(§1) The compounds of the present invention as described were tested in the mTOR kinobeads assay as described below. Briefly, test compounds (at various concentrations) and the affinity matrix (1:1 mixture of beads with immobilized phenylthiazole ligand 1 and beads with immobilized phenylmorpholin-chromen ligand; WO 2009/098021) were added to cell lysate aliquots and allowed to bind to the proteins in the lysate sample. After the incubation time the beads with captured proteins were separated from the lysate. Bound proteins were then eluted and the presence of mTOR, PI3Kα, PI3Kβ, PI3Kγ, PI3Kδ and DNA-dependent protein kinase (DNA-PK) was detected and quantified using a specific antibody in a dot blot procedure and the Odyssey infrared detection system. Dose response curves for individual kinases were generated and IC50 values calculated. Kinobeads assays for PI3 kinases (WO-A 2008/015013) and for kinase selectivity profiling (WO 2009/098021) have been previously described.
(§2) Washing of Affinity Matrix
(§3) The affinity matrix was washed two times with 15 ml of 1×DP buffer containing 0.2% NP40 (IGEPAL® CA-630, Sigma, #13021) and then resupended in 5.5 ml of 1×DP buffer containing 0.2% NP40 (10% beads slurry).
(§4) 5×DP buffer: 250 mM Tris-HCl pH 7.4, 25% Glycerol, 7.5 mM MgCl2, 750 mM NaCl, 5 mM Na3VO4, filter the 5×-lysis buffer through 0.22 μm filter and store in aliquots at −80° C. The 5×DP buffer is diluted to 1×DP buffer containing 1 mM DTT and 25 mM NaF.
(§5) Preparation of Test Compounds
(§6) Stock solutions of test compounds were prepared in DMSO. In a 96 well plate 30 μl solution of diluted test compounds at 5 mM in DMSO were prepared. Starting with this solution a 1:3 dilution series (9 steps) was prepared. For control experiments (no test compound) a buffer containing 2% DMSO was used. Compound Pi-103 (Calbiochem catalogue number 528100) served as a positive control.
(§7) Cell Culture and Preparation of Cell Lysates
(§8) Jurkat cells (ATCC catalogue number TIB-152 Jurkat, clone E6-1) and Ramos cells (ATCC number CRL-1596) were grown in 1 litre Spinner flasks (Integra Biosciences, #182101) in suspension in RPMI 1640 medium (Invitrogen, #21875-034) supplemented with 10% Fetal Bovine Serum (Invitrogen) at a density between 0.15×10^6 and 1.2×10^6 cells/ml. Cells were harvested by centrifugation, washed once with 1×PBS buffer (Invitrogen, #14190-094) and cell pellets were frozen in liquid nitrogen and subsequently stored at −80° C.
(§9) Cells were homogenized in a Potter S homogenizer in lysis buffer: 50 mM Tris-HCl, 0.8% NP40, 5% glycerol, 150 mM NaCl, 1.5 mM MgCl2, 25 mM NaF, 1 mM sodium vanadate, 1 mM DTT, pH 7.5. One complete EDTA-free tablet (protease inhibitor cocktail, Roche Diagnostics, 1873580) per 25 ml buffer was added. The material was dounced 10 times using a mechanized POTTER S, transferred to 50 ml falcon tubes, incubated for 30 minutes on ice and spun down for 10 min at 20,000 g at 4° C. (10,000 rpm in Sorvall SLA600, precooled). The supernatant was transferred to an ultracentrifuge (UZ)-polycarbonate tube (Beckmann, 355654) and spun for 1 hour at 100.000 g at 4° C. (33.500 rpm in Ti50.2, precooled). The supernatant was transferred again to a fresh 50 ml falcon tube, the protein concentration was determined by a Bradford assay (BioRad) and samples containing 50 mg of protein per aliquot were prepared. The samples were immediately used for experiments or frozen in liquid nitrogen and stored frozen at −80° C.
(§10) Cell lysate (approximately 50 mg protein per plate) was thawed in a water bath at room temperature and then kept on ice. To the thawed cell lysate 1×DP 0.8% NP40 buffer containing protease inhibitors (1 tablet for 25 ml buffer; EDTA-free protease inhibitor cocktail; Roche Diagnostics 1873580) was added in order to reach a final protein concentration of 5 mg/ml total protein. For the kinobeads experiment a 1:1 mix of Jurkat and Ramos cell lysates was used. […]

PI3Kα = biological target: T2, PI3Kα (Homo sapiens, UniProt P42336); assay: kinobeads assay, PI3Kα; format: binding; settings: 1:1 mix of Jurkat and Ramos cell lysates, read-out: Inhibition values (IC50 in μM) as determined in the kinobeads assay, PI3Kα
T2 construct: endogenous in cells; host or cells: Jurkat (ATCC TIB-152, clone E6-1) and Ramos (ATCC CRL-1596), 1:1 lysate mix
Protocol: as §1, §2, §3, §4, §5, §6, §7, §8, §9
as §10, with “used. The diluted cell lysate was stored on ice.” for “used.”

PI3Kβ = biological target: T3, PI3Kβ (Homo sapiens, UniProt P42338); assay: kinobeads assay, PI3Kβ; format: binding; settings: 1:1 mix of Jurkat and Ramos cell lysates, read-out: Inhibition values (IC50 in μM) as determined in the kinobeads assay, PI3Kβ
T3 construct: endogenous in cells; host or cells: Jurkat (ATCC TIB-152, clone E6-1) and Ramos (ATCC CRL-1596), 1:1 lysate mix
Protocol: as §1, §2, §3, §4, §5, §6, §7, §8, §9
as §10, with “used. The diluted cell lysate was stored on ice.” for “used.”

PI3Kδ = biological target: T4, PI3Kδ (Homo sapiens, UniProt O00329); assay: kinobeads assay, PI3Kδ; format: binding; settings: 1:1 mix of Jurkat and Ramos cell lysates, read-out: Inhibition values (IC50 in μM) as determined in the kinobeads assay, PI3Kδ
T4 construct: endogenous in cells; host or cells: Jurkat (ATCC TIB-152, clone E6-1) and Ramos (ATCC CRL-1596), 1:1 lysate mix
Protocol: as §1, §2, §3, §4, §5, §6, §7, §8, §9
as §10, with “used. The diluted cell lysate was stored on ice.” for “used.”

PI3Kγ = biological target: T5, PI3Kγ (Homo sapiens, UniProt P48736); assay: kinobeads assay, PI3Kγ; format: binding; settings: 1:1 mix of Jurkat and Ramos cell lysates, read-out: Inhibition values (IC50 in μM) as determined in the kinobeads assay, PI3Kγ
T5 construct: endogenous in cells; host or cells: Jurkat (ATCC TIB-152, clone E6-1) and Ramos (ATCC CRL-1596), 1:1 lysate mix
Protocol: as §1, §2, §3, §4, §5, §6, §7, §8, §9
as §10, with “used. The diluted cell lysate was stored on ice.” for “used.”

[1] = biological target: T6, DNA-dependent protein kinase (DNA-PK) (Homo sapiens, UniProt P78527); assay: kinobeads assay, DNA-PK; format: binding; settings: 1:1 mix of Jurkat and Ramos cell lysates, read-out: Inhibition values (IC50 in μM) as determined in the kinobeads assay, DNA-PK
T6 construct: endogenous in cells; host or cells: Jurkat (ATCC TIB-152, clone E6-1) and Ramos (ATCC CRL-1596), 1:1 lysate mix
Protocol: as §1, §2, §3, §4, §5, §6, §7, §8, §9
as §10, with “used. The diluted cell lysate was stored on ice.” for “used.”

T3 sequence (P42338 whole entry): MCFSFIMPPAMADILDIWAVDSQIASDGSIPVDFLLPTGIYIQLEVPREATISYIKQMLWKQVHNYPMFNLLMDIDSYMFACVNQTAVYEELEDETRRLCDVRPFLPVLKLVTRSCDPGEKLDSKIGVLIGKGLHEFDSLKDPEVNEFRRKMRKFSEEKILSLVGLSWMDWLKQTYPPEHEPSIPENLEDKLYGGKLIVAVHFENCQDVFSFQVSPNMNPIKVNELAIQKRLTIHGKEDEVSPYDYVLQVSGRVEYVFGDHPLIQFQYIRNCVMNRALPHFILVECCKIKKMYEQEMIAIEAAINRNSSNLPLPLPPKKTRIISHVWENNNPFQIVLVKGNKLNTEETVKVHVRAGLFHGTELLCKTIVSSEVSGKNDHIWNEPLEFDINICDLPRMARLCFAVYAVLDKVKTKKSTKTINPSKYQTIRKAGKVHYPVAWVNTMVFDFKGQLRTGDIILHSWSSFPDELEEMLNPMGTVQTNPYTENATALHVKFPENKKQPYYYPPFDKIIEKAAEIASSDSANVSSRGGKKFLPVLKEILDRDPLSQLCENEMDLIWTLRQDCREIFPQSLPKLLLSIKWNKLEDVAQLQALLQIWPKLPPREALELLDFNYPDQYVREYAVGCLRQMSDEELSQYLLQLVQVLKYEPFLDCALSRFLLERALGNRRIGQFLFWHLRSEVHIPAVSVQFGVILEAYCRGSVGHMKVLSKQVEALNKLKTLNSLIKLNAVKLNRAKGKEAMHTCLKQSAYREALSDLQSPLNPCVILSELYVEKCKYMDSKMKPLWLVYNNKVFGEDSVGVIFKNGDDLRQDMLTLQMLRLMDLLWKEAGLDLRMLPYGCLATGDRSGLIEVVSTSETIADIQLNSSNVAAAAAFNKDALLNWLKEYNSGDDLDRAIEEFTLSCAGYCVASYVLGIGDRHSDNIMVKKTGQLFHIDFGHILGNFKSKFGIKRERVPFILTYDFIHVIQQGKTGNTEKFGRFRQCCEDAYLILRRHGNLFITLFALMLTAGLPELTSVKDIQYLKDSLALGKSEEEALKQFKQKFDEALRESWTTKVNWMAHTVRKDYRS
T3 sequence (P27986 whole entry partner): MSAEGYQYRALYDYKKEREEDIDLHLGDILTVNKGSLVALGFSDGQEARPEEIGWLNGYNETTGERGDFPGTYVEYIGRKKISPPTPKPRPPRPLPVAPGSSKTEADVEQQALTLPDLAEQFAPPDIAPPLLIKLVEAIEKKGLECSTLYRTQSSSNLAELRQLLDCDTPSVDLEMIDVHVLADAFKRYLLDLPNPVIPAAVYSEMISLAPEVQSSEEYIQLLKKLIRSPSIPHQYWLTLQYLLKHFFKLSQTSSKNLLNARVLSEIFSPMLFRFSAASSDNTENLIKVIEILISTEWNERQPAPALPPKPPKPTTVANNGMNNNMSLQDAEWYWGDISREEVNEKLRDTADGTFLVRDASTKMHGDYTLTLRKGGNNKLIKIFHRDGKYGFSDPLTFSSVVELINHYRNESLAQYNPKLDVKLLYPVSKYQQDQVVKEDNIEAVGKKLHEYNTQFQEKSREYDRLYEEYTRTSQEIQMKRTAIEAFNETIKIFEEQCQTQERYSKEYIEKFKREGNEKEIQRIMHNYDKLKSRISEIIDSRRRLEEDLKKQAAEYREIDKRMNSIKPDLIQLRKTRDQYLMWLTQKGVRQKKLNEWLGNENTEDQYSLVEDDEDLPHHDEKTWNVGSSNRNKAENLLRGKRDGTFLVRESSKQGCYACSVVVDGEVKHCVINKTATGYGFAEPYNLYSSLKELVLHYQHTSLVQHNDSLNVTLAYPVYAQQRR
T4 sequence (O00329 whole entry): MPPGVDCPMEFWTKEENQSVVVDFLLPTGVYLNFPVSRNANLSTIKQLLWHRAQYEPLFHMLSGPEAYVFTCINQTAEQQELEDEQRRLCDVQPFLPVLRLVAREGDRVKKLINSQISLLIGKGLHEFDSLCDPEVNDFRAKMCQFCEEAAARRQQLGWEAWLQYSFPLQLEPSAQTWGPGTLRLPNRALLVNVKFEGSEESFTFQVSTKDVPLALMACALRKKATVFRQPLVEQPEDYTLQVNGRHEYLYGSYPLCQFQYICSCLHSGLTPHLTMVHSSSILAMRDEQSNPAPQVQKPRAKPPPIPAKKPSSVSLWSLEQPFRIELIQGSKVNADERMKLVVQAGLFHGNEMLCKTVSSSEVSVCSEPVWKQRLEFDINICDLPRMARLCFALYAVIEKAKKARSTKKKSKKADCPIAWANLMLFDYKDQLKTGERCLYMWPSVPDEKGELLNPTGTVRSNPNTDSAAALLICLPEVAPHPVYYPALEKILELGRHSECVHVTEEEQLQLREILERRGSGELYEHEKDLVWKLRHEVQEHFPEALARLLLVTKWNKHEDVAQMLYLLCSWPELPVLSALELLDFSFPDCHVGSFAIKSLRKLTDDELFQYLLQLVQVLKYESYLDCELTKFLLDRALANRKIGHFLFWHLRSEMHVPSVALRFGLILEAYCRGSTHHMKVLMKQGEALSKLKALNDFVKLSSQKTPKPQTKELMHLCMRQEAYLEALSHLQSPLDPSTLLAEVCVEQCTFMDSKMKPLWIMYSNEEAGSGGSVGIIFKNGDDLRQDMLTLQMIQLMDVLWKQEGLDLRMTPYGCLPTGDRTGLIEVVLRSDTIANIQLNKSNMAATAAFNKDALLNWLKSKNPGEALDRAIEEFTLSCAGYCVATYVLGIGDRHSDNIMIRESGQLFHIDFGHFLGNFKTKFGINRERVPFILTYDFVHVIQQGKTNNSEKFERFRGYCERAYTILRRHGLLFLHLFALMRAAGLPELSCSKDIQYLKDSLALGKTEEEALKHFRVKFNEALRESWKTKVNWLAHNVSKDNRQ
T4 sequence (P27986 whole entry partner): as the sequence (P27986 whole entry partner) above
T2 sequence (P42336 whole entry): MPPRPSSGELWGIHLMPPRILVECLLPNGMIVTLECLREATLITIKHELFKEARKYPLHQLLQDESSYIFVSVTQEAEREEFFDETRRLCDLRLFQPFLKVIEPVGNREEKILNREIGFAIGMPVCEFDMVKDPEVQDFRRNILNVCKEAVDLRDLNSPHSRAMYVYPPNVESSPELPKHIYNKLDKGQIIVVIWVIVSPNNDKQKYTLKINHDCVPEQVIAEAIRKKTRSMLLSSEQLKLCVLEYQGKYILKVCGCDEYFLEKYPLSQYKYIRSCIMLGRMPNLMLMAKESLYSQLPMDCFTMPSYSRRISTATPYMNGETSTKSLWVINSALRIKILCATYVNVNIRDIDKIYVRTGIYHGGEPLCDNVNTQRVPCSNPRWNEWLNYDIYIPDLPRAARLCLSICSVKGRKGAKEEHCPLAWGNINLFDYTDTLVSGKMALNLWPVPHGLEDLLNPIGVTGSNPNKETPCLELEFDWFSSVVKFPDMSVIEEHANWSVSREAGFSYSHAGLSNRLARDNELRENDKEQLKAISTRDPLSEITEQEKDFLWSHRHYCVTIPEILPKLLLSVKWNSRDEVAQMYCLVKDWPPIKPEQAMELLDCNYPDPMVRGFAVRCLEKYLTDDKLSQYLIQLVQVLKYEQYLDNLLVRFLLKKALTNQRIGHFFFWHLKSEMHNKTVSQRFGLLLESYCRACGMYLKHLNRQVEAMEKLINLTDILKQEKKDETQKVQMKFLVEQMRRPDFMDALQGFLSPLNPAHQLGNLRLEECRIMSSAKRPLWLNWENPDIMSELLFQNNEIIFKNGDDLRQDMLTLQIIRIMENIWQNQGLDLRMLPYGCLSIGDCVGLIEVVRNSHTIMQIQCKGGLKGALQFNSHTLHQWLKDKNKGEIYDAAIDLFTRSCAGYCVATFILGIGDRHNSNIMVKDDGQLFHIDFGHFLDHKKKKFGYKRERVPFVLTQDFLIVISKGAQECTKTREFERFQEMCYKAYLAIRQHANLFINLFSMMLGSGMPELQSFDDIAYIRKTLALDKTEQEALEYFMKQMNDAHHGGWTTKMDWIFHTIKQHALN
T2 sequence (P27986 whole entry partner): as the sequence (P27986 whole entry partner) above
T5 sequence (P48736 whole entry): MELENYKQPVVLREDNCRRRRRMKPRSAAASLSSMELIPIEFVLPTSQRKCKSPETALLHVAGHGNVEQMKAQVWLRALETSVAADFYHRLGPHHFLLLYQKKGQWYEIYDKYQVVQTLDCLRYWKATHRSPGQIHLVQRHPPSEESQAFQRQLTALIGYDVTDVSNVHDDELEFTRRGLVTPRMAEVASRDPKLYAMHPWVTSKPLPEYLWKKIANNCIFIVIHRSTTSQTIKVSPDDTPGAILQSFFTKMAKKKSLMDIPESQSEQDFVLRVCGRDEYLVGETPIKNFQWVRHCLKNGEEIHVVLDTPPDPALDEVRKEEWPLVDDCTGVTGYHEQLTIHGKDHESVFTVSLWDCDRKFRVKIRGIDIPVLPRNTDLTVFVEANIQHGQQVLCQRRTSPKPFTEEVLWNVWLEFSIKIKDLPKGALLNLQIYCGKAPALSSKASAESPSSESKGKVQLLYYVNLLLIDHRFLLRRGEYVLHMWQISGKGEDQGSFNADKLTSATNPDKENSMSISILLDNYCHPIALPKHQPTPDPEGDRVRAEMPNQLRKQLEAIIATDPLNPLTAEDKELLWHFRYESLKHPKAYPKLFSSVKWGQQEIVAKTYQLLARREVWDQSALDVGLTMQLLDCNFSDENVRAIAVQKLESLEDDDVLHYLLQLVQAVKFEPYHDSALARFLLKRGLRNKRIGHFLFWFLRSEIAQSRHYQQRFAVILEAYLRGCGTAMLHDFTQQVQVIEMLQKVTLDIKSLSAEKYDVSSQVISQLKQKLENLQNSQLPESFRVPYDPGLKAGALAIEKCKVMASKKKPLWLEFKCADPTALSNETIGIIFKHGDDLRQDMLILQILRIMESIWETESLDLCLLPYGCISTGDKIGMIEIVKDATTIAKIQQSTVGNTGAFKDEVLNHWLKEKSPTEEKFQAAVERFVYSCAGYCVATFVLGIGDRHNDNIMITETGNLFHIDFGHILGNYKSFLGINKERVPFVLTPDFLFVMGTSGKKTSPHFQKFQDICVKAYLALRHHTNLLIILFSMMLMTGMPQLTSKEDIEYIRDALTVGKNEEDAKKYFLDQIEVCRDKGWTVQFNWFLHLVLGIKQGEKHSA

Row | Structure (SMILES) | IC50 (mTOR) | IC50 (PI3Kα) | IC50 (PI3Kβ) | IC50 (PI3Kδ) | IC50 (PI3Kγ) | IC50 [1]
1 | C[C@H]1COCCN1c1nc2c(c(-c3ccc(NC(=O)NC4CC4)cc3)n1)CN(C(=O)CN)C2 [Example 28, (S)-1-(4-(6-(2-aminoacetyl)-2-(3-methylmorpholino)-6,7-dihydro-5H-pyrrolo[3,4-d]pyrimidin-4-yl)phenyl)-3-cyclopropylurea] | 1 to 10 µM | 10 to 100 µM | 10 to 100 µM | 10 to 100 µM | 10 to 100 µM | > 100 µM
2 | C[C@H]1COCCN1c1nc2c(c(-c3ccc(NC(=O)NC4CC4)cc3)n1)CN(C(=O)CCN)C2 [Example 29, (S)-1-(4-(6-(3-aminopropanoyl)-2-(3-methylmorpholino)-6,7-dihydro-5H-pyrrolo[3,4-d]pyrimidin-4-yl)phenyl)-3-cyclopropylurea] | 1 to 10 µM | 10 to 100 µM | 10 to 100 µM | 10 to 100 µM | 10 to 100 µM | > 100 µM
3 | C[C@H]1COCCN1c1nc2c(c(-c3ccc(NC(=O)NC4CC4)cc3)n1)CN(C(=O)CCCN)C2 [Example 30, (S)-1-(4-(6-(4-aminobutanoyl)-2-(3-methylmorpholino)-6,7-dihydro-5H-pyrrolo[3,4-d]pyrimidin-4-yl)phenyl)-3-cyclopropylurea] | 1 to 10 µM | 10 to 100 µM | 10 to 100 µM | 10 to 100 µM | > 100 µM | > 100 µM
4 | COCCC(=O)N1Cc2nc(N3CCOC[C@@H]3C)nc(-c3ccc(NC(=O)NC4CC4)cc3)c2C1 [Example 31, (S)-1-cyclopropyl-3-(4-(6-(3-methoxypropanoyl)-2-(3-methylmorpholino)-6,7-dihydro-5H-pyrrolo[3,4-d]pyrimidin-4-yl)phenyl)urea] | 0.1 to 1 µM | > 100 µM | 10 to 100 µM | 10 to 100 µM | > 100 µM | > 100 µM
5 | C[C@H]1COCCN1c1nc2c(c(-c3ccc(NC(=O)NC4CC4)cc3)n1)CN(C(=O)CCCN(C)C)C2 [Example 32, (S)-1-cyclopropyl-3-(4-(6-(4-(dimethylamino)butanoyl)-2-(3-methylmorpholino)-6,7-dihydro-5H-pyrrolo[3,4-d]pyrimidin-4-yl)phenyl)urea] | 1 to 10 µM | > 100 µM | 1 to 10 µM | 10 to 100 µM | 10 to 100 µM | 10 to 100 µM
6 | C[C@H]1COCCN1c1nc2c(c(-c3ccc(NC(=O)NC4CC4)cc3)n1)CN(C(=O)C1CCCO1)C2 (stereo partly drawn) [Example 33, 1-cyclopropyl-3-(4-(2-((S)-3-methylmorpholino)-6-(tetrahydrofuran-2-carbonyl)-6,7-dihydro-5H-pyrrolo[3,4-d]pyrimidin-4-yl)phenyl)urea] | 1 to 10 µM | > 100 µM | 10 to 100 µM | 10 to 100 µM | > 100 µM | > 100 µM
7 | CC(C)N1Cc2nc(N3CCOC[C@@H]3C)nc(-c3ccc(NC(=O)NCCO)cc3)c2C1 [Example 34, (S)-1-(2-hydroxyethyl)-3-(4-(6-isopropyl-2-(3-methylmorpholino)-6,7-dihydro-5H-pyrrolo[3,4-d]pyrimidin-4-yl)phenyl)urea 2,2,2-trifluoroacetate] | 0.1 to 1 µM | 10 to 100 µM | 10 to 100 µM | 10 to 100 µM | 10 to 100 µM | > 100 µM
8 | C[C@H]1COCCN1c1nc2c(c(-c3ccc(NC(=O)NC4CC4)cc3)n1)CN(S(=O)(=O)C1CC1)C2 [Example 35, (S)-1-cyclopropyl-3-(4-(6-(cyclopropylsulfonyl)-2-(3-methylmorpholino)-6,7-dihydro-5H-pyrrolo[3,4-d]pyrimidin-4-yl)phenyl)urea] | 1 to 10 µM | > 100 µM | > 100 µM | > 100 µM | > 100 µM | > 100 µM
9 | C[C@H]1COCCN1c1nc2c(c(-c3ccc(NC(=O)NCCO)cc3)n1)CN(S(C)(=O)=O)C2 [Example 36, (S)-1-(2-hydroxyethyl)-3-(4-(2-(3-methylmorpholino)-6-(methylsulfonyl)-6,7-dihydro-5H-pyrrolo[3,4-d]pyrimidin-4-yl)phenyl)urea] | 0.1 to 1 µM | 10 to 100 µM | 10 to 100 µM | 10 to 100 µM | 1 to 10 µM | > 100 µM
10 | CCNC(=O)N1Cc2nc(N3CCOC[C@@H]3C)nc(-c3ccc(NC(=O)NCCO)cc3)c2C1 [Example 37, (S)—N-ethyl-4-(4-(3-(2-hydroxyethyl)ureido)phenyl)-2-(3-methylmorpholino)-5H-pyrrolo[3,4-d]pyrimidine-6(7H)-carboxamide] | 0.1 to 1 µM | 1 to 10 µM | 10 to 100 µM | 10 to 100 µM | 10 to 100 µM | 10 to 100 µM
11 | C[C@H]1COCCN1c1nc2c(c(-c3ccc(NC(=O)NCCO)cc3)n1)CN(C1CCCCC1)C2 [Example 38, (S)-1-(4-(6-cyclohexyl-2-(3-methylmorpholino)-6,7-dihydro-5H-pyrrolo[3,4-d]pyrimidin-4-yl)phenyl)-3-(2-hydroxyethyl)urea] | 1 to 10 µM | > 100 µM | > 100 µM | > 100 µM | > 100 µM | > 100 µM
12 | CC(=O)N1Cc2nc(N3CCOC[C@@H]3C)nc(-c3ccc(NC(=O)NCCO)cc3)c2C1 [Example 39, (S)-1-(4-(6-acetyl-2-(3-methylmorpholino)-6,7-dihydro-5H-pyrrolo[3,4-d]pyrimidin-4-yl)phenyl)-3-(2-hydroxyethyl)urea] | 0.1 to 1 µM | 10 to 100 µM | 10 to 100 µM | 1 to 10 µM | 10 to 100 µM | 10 to 100 µM
13 | C[C@H]1COCCN1c1nc2c(c(-c3ccc(NC(=O)NC4CC4)cc3)n1)CN(C(=O)C1CCOC1)C2 (stereo partly drawn) [Example 40, 1-cyclopropyl-3-(4-(2-((S)-3-methylmorpholino)-6-(tetrahydrofuran-3-carbonyl)-6,7-dihydro-5H-pyrrolo[3,4-d]pyrimidin-4-yl)phenyl)urea 2,2,2-trifluoroacetate] | 1 to 10 µM | 10 to 100 µM | 10 to 100 µM | 10 to 100 µM | > 100 µM | > 100 µM
